Reference: patent US20240148821A1, “PHARMACEUTICAL USE OF CYCLIC PEPTIDE COMPOUND” (CHUGAI SEIYAKU KABUSHIKI KAISHA, priority 2021, published 2024)
Bridge positions count the residues as written; N and C are the ends. Square brackets hold non-standard residues; d marks the D form. Peptide text beside a SMILES is read from it. * marks the point of attachment. hPhe(3,5-F2-4-CF3) = N[C@@H](CCc1cc(F)c(C(F)(F)F)c(F)c1)C(=O)O; hPhe(3-Cl-4-CF3) = N[C@@H](CCc1ccc(C(F)(F)F)c(Cl)c1)C(=O)O; NMePhe(4-CF3) = CN[C@@H](Cc1ccc(C(F)(F)F)cc1)C(=O)O; Thiomorpholino(1,1-dioxo) = O=S1(=O)CCN(*)CC1; NMeAbu(4,4,4-F3) = CN[C@@H](CC(F)(F)F)C(=O)O; NMePhe(4-Me) = CN[C@@H](Cc1ccc(C)cc1)C(=O)O; NMeGly(cPent) = CN[C@H](C(=O)O)C1CCCC1; Phe(3-I) = N[C@@H](Cc1cccc(I)c1)C(=O)O; Pro(4,4-F2) = O=C(O)[C@@H]1CC(F)(F)CN1; NMeY = CN[C@@H](Cc1ccc(O)cc1)C(=O)O; NMeCha = CN[C@@H](CC1CCCCC1)C(=O)O; NMehLeu = CN[C@@H](CCC(C)C)C(=O)O; NMeChg = CN[C@H](C(=O)O)C1CCCCC1; NMeD = CN[C@@H](CC(=O)O)C(=O)O; NMeL = CN[C@@H](CC(C)C)C(=O)O; NMeV = CN[C@H](C(=O)O)C(C)C; d(β3hA) = C[C@@H](N)CC(=O)O; Morpholide = C1CN(*)CCO1; NMeA = CN[C@@H](C)C(=O)O; NMeAib = CNC(C)(C)C(=O)O; Piperidide = C1CCN(*)CC1; Pra = C#CC[C@H](N)C(=O)O; Pyrrolidide = C1CCN(*)C1; Ac5c = NC1(C(=O)O)CCCC1; Aze = O=C(O)[C@@H]1CCN1; Sar = CNCC(=O)O

What follows are compounds tested on Human pancreatic cancer cell line AsPC-1 (G12D mutation Kras) (assay: AsPC-1 cell growth inhibition (AsPC-1 CGI)). Details: read-out: AsPC-1 cell growth inhibition, 50% growth inhibitory concentration (IC50 value); 96 hours, CellTiter-Glo, values classified in ranges.
Type: cell-based
Method: Test compounds were serially dilated with dimethyl sulfoxide, and 200 nL was then dispensed to a U-bottom 96-well plate using Labcyte Echo. […] The cell suspension was dispensed to a. plate containing a test compound at 100 μL per well and incubated at 37° C. in a 5% carbon dioxide gas incubator. 96 hours later, 80 μL of CellTiter-Glo (Promega) was added to each well and fluorescence was measured.
In the case of `CC[C@H](C)[C@@H]1NC(=O)[C@H](CCC(C)C)N(C)C(=O)C[C@@H](C(=O)N2CCOCC2)N(C)C(=O)[C@H](C2CCCC2)N(C)C(=O)C2(CCCC2)NC(=O)[C@@H]2CCCN2C(=O)[C@H](CCc2ccc(C(F)(F)F)c(Cl)c2)NC(=O)CN(C)C(=O)[C@H](C2CCCC2)N(C)C(=O)[C@@H]2CCN2C(=O)[C@H](C)N(C)C1=O` [Compound 1237] ([NMehLeu]I[NMeA][Aze][NMeGly(cPent)][Sar][hPhe(3-Cl-4-CF3)]P[Ac5c][NMeGly(cPent)][NMeD]-Morpholide; lactam N-11), the IC50 is reported as at most 20 nM. Compound `CC[C@H](C)[C@@H]1NC(=O)[C@H](CC(C)C)N(C)C(=O)C[C@@H](C(=O)N2CCS(=O)(=O)CC2)N(C)C(=O)[C@H](C(C)C)N(C)C(=O)C2(CCCC2)NC(=O)[C@@H]2CCCN2C(=O)[C@H](CCc2ccc(C(F)(F)F)c(Cl)c2)NC(=O)CN(C)C(=O)[C@H](CC2CCCCC2)N(C)C(=O)[C@@H]2CCN2C(=O)[C@H](C)N(C)C1=O` [Compound 1238] ([NMeL]I[NMeA][Aze][NMeCha][Sar][hPhe(3-Cl-4-CF3)]P[Ac5c][NMeV][NMeD]-{Thiomorpholino(1,1-dioxo)}; lactam N-11) has an IC50 of over 500 nM. Compound `CC[C@H](C)[C@@H]1NC(=O)[C@H](CC(C)C)N(C)C(=O)C[C@@H](C)NC(=O)[C@H](C)N(C)C(=O)C2(CCCC2)NC(=O)[C@@H]2CCCN2C(=O)[C@H](CCc2ccc(C(F)(F)F)c(Cl)c2)NC(=O)CN(C)C(=O)[C@H](Cc2ccc(C)cc2)N(C)C(=O)[C@@H]2CCN2C(=O)[C@H](C)N(C)C1=O` [Compound 1239] (cyclo([Ac5c][NMeA][d(β3hA)][NMeL]I[NMeA][Aze][NMePhe(4-Me)][Sar][hPhe(3-Cl-4-CF3)]P)) has an IC50 of over 500 nM. `CC[C@H](C)[C@@H]1NC(=O)[C@H](CC(C)C)N(C)C(=O)C[C@@H](C(=O)N2CCCCC2)N(C)C(=O)[C@H](C(C)C)N(C)C(=O)C2(CCCC2)NC(=O)[C@H](C)N(C)C(=O)[C@H](CCc2ccc(C(F)(F)F)c(Cl)c2)NC(=O)CN(C)C(=O)[C@H](CC2CCCCC2)N(C)C(=O)[C@@H]2CCN2C(=O)[C@H](C)N(C)C1=O` [Compound 1243] ([NMeL]I[NMeA][Aze][NMeCha][Sar][hPhe(3-Cl-4-CF3)][NMeA][Ac5c][NMeV][NMeD]-Piperidide; lactam N-11) showed an IC50 of over 500 nM. `CC[C@H](C)[C@@H]1NC(=O)[C@H](CC(F)(F)F)N(C)C(=O)C[C@@H](C(=O)N2CCCC2)N(C)C(=O)[C@H](C2CCCCC2)N(C)C(=O)C2(CCCC2)NC(=O)[C@@H]2CCCN2C(=O)[C@H](CCc2cc(F)c(C(F)(F)F)c(F)c2)NC(=O)CN(C)C(=O)[C@H](Cc2ccc(C(F)(F)F)cc2)N(C)C(=O)CN(C)C(=O)CN(C)C1=O` [Compound 1244] ([NMeAbu(4,4,4-F3)]I[Sar][Sar][NMePhe(4-CF3)][Sar][hPhe(3,5-F2-4-CF3)]P[Ac5c][NMeChg][NMeD]-Pyrrolidide; lactam N-11) was tested, and the IC50 was at most 20 nM. For `CC[C@H](C)[C@@H]1NC(=O)[C@H](CC(F)(F)F)N(C)C(=O)C[C@@H](C(=O)N2CCCC2)N(C)C(=O)[C@H](C2CCCCC2)N(C)C(=O)C2(CCCC2)NC(=O)[C@@H]2CC(F)(F)CN2C(=O)[C@H](CCc2ccc(C(F)(F)F)c(Cl)c2)NC(=O)CN(C)C(=O)[C@H](Cc2ccc(C)cc2)N(C)C(=O)CN(C)C(=O)CN(C)C1=O` [Compound 1245] ([NMeAbu(4,4,4-F3)]I[Sar][Sar][NMePhe(4-Me)][Sar][hPhe(3-Cl-4-CF3)][Pro(4,4-F2)][Ac5c][NMeChg][NMeD]-Pyrrolidide; lactam N-11), the IC50 was at most 20 nM. For `C#CC[C@@H]1NC(=O)[C@H](Cc2cccc(I)c2)NC(=O)CN(C)C(=O)[C@H](Cc2ccc(OC)cc2)N(C)C(=O)[C@@H]2CCN2C(=O)CN(C)C(=O)[C@H]([C@@H](C)CC)NC(=O)[C@H](CC(C)C)N(C)C(=O)C[C@@H](C(=O)N2CCCCC2)N(C)C(=O)[C@H](CC(C)C)NC(=O)C(C)(C)N(C)C1=O` [Compound 1246] ([NMeL]I[Sar][Aze][NMeY](Me)[Sar][Phe(3-I)][Pra][NMeAib]L[NMeD]-Piperidide; lactam N-11), the IC50 was over 500 nM.
